This passage reports MIC results from ChEMBL document CHEMBL1145316, “Synthesis of novel tricyclic oxazolidinones by a tandem SN2 and SNAr reaction: SAR studies on conformationally constrained analogues of Linezolid” (2006).

In brackets after ≈: the same amount, converted by molar mass.

What all share (type): functional
For test [1], the system named is Staphylococcus aureus. Description: Antibacterial activity against methicillin-resistant Staphylococcus aureus ATCC 33591.
The test system of test [2] is Staphylococcus aureus. Nature of the test: Antibacterial activity against Staphylococcus aureus ATCC 49951.
In test [3] the test system is Staphylococcus aureus. Description: Antibacterial activity against Staphylococcus aureus ATCC 29213.
In test [4] the test system is Enterococcus faecalis. Nature of the test: Antibacterial activity against vancomycin-sensitive Enterococcus faecalis ATCC 29212.
The subject of test [5] is Enterococcus faecalis. Nature of the test: Antibacterial activity against vancomycin-resistant Enterococcus faecalis NCTC 12201.
In another test the test system is Enterococcus faecium. Nature of the test: Antibacterial activity against vancomycin-resistant Enterococcus faecium ATCC 12202.

A word on the MIC: it is the smallest concentration in the dilution series that meets the test's criterion for growth inhibition. Read a low MIC as a more susceptible organism. As for `CC(=O)NC[C@H]1CN(c2cc(F)c3c(c2)N(C)C[C@@H]2CCCN32)C(=O)O1`, the minimal inhibitory concentration (MIC) is greater than 32 µg/mL with Staphylococcus aureus [1]; greater than 32 µg/mL against Staphylococcus aureus [2]; greater than 32 µg/mL against Staphylococcus aureus [3]; greater than 32 µg/mL in the test with Enterococcus faecalis [4]; greater than 32 µg/mL against Enterococcus faecalis [5]; 32 µg/mL (≈ 88.3 µM) with Enterococcus faecium.

Regarding `CC(=O)NC[C@H]1CN(c2ccc3c(c2)N(C(=O)OCc2ccccc2)C[C@@H]2CCCN32)C(=O)O1`, the minimal inhibitory concentration (MIC) in the test on Staphylococcus aureus [1], in the test on Staphylococcus aureus [2], against Staphylococcus aureus [3], against Enterococcus faecalis [4], against Enterococcus faecalis [5] and with Enterococcus faecium was greater than 32 µg/mL in each case.

On to `COC(=S)NC[C@H]1CN(c2ccc3c(c2)SC[C@@H]2CCCN32)C(=O)O1`, for which the MIC against Staphylococcus aureus [1] turned out to be 0.25 µg/mL (≈ 0.659 µM); in the test on Staphylococcus aureus [2], 1 µg/mL (≈ 2.63 µM); with Staphylococcus aureus [3], 0.5 µg/mL (≈ 1.32 µM); in the test with Enterococcus faecalis [4], 0.25 µg/mL (≈ 0.659 µM); in the test on Enterococcus faecalis [5], 0.25 µg/mL (≈ 0.659 µM); with Enterococcus faecium, 0.5 µg/mL (≈ 1.32 µM).

For `CC(=O)NC[C@H]1CN(c2ccc3c(c2)N(C(=O)CCl)C[C@@H]2CCCN32)C(=O)O1`, the MIC against Staphylococcus aureus [1], with Staphylococcus aureus [2], with Staphylococcus aureus [3], in the test on Enterococcus faecalis [4], against Enterococcus faecalis [5] and in the test with Enterococcus faecium was greater than 256 µg/mL in each case.

Take `CC(=O)NC[C@H]1CN(c2ccc3c(c2)S(=O)(=O)C[C@@H]2CCCN32)C(=O)O1`: the MIC in the test on Staphylococcus aureus [1], against Staphylococcus aureus [2], in the test on Staphylococcus aureus [3], against Enterococcus faecalis [4], with Enterococcus faecalis [5] and against Enterococcus faecium was greater than 32 µg/mL in each case.

As for `COC(=S)NC[C@H]1CN(c2cc(F)c3c(c2)SC[C@@H]2CCCN32)C(=O)O1`, the MIC worked out at 0.5 µg/mL (≈ 1.26 µM) in the test with Staphylococcus aureus [1]; 1 µg/mL (≈ 2.52 µM) with Staphylococcus aureus [2]; 1 µg/mL (≈ 2.52 µM) in the test with Staphylococcus aureus [3]; 1 µg/mL (≈ 2.52 µM) in the test with Enterococcus faecalis [4]; 0.5 µg/mL (≈ 1.26 µM) against Enterococcus faecalis [5]; 0.5 µg/mL (≈ 1.26 µM) with Enterococcus faecium.

On to `CC(=O)NC[C@H]1CN(c2ccc3c(c2)N(C(C)=O)C[C@@H]2CCCN32)C(=O)O1`, for which the MIC in the test on Staphylococcus aureus [1], against Staphylococcus aureus [2], with Staphylococcus aureus [3], in the test with Enterococcus faecalis [4], in the test on Enterococcus faecalis [5] and with Enterococcus faecium was greater than 256 µg/mL in each case.

In the case of `CN[C@H](CC(C)C)C(=O)N[C@H]1C(=O)N[C@@H](CC(N)=O)C(=O)N[C@H]2C(=O)N[C@H]3C(=O)N[C@H](C(=O)N[C@H](C(=O)O)c4cc(O)cc(O)c4-c4cc3ccc4O)[C@H](O)c3ccc(c(Cl)c3)Oc3cc2cc(c3O[C@@H]2O[C@H](CO)[C@@H](O)[C@H](O)[C@H]2O[C@H]2C[C@](C)(N)[C@H](O)[C@H](C)O2)Oc2ccc(cc2Cl)[C@H]1O` [VANCOMYCIN], the MIC is 2 µg/mL (≈ 1.38 µM) in the test on Enterococcus faecalis [4], greater than 32 µg/mL with Enterococcus faecalis [5] and greater than 32 µg/mL with Enterococcus faecium.

For the molecule `CC(=O)NC[C@H]1CN(c2ccc3c(c2)OC[C@@H]2CCCN32)C(=O)O1`, the MIC in the test on Staphylococcus aureus [1] is 4 µg/mL (≈ 12.1 µM); in the test on Staphylococcus aureus [2] it was 4 µg/mL (≈ 12.1 µM); against Staphylococcus aureus [3], 8 µg/mL (≈ 24.1 µM); in the test on Enterococcus faecalis [4], 16 µg/mL (≈ 48.3 µM); in the test with Enterococcus faecalis [5], 16 µg/mL (≈ 48.3 µM); with Enterococcus faecium it was 16 µg/mL (≈ 48.3 µM).

Take `COC(=S)NC[C@H]1CN(c2cc(F)c3c(c2)N(C)C[C@@H]2CCCN32)C(=O)O1`: the minimal inhibitory concentration (MIC) in the test on Staphylococcus aureus [1] is greater than 32 µg/mL; in the test on Staphylococcus aureus [2] it was greater than 32 µg/mL; in the test with Staphylococcus aureus [3], greater than 32 µg/mL; in the test on Enterococcus faecalis [4] it was greater than 32 µg/mL; in the test on Enterococcus faecalis [5], greater than 32 µg/mL; with Enterococcus faecium, 32 µg/mL (≈ 81.1 µM).

Regarding `CC(=O)NC[C@H]1CN(c2ccc3c(c2)N(C=O)C[C@@H]2CCCN32)C(=O)O1`, the MIC against Staphylococcus aureus [1], against Staphylococcus aureus [2], in the test with Staphylococcus aureus [3], against Enterococcus faecalis [4], against Enterococcus faecalis [5] and with Enterococcus faecium was greater than 256 µg/mL throughout.

As for `CC(=O)NC[C@H]1CN(c2ccc3c(c2)SC[C@@H]2CCCN32)C(=O)O1`, the minimal inhibitory concentration (MIC) against Staphylococcus aureus [1], against Staphylococcus aureus [2], in the test with Staphylococcus aureus [3], in the test with Enterococcus faecalis [4], against Enterococcus faecalis [5] and against Enterococcus faecium was 8 µg/mL (≈ 23 µM) in each case.

For the molecule `C/C(S)=N/C[C@H]1CN(c2cc(F)c3c(c2)SC[C@@H]2CCCN32)C(=O)O1`, the minimal inhibitory concentration (MIC) in the test on Staphylococcus aureus [1] came out at 0.25 µg/mL (≈ 0.655 µM); against Staphylococcus aureus [2] it was 0.5 µg/mL (≈ 1.31 µM); with Staphylococcus aureus [3], 0.5 µg/mL (≈ 1.31 µM); with Enterococcus faecalis [4], 0.5 µg/mL (≈ 1.31 µM); with Enterococcus faecalis [5], 0.25 µg/mL (≈ 0.655 µM); against Enterococcus faecium, 0.25 µg/mL (≈ 0.655 µM).

Consider `CNC(=S)NC[C@H]1CN(c2cc(F)c3c(c2)SC[C@@H]2CCCN32)C(=O)O1`, for which the minimal inhibitory concentration (MIC) against Staphylococcus aureus [1] turned out to be 0.5 µg/mL (≈ 1.26 µM); with Staphylococcus aureus [2] it was 0.5 µg/mL (≈ 1.26 µM); in the test on Staphylococcus aureus [3], 2 µg/mL (≈ 5.04 µM); against Enterococcus faecalis [4] it was 1 µg/mL (≈ 2.52 µM); against Enterococcus faecalis [5], 0.5 µg/mL (≈ 1.26 µM); in the test with Enterococcus faecium, 1 µg/mL (≈ 2.52 µM).

Turning to `CC(=O)NC[C@H]1CN(c2cc(F)c3c(c2)SC[C@@H]2CCCN32)C(=O)O1`, the minimum inhibitory concentration (MIC) was determined as 1 µg/mL (≈ 2.74 µM) in the test with Staphylococcus aureus [1]; 1 µg/mL (≈ 2.74 µM) in the test on Staphylococcus aureus [2]; 2 µg/mL (≈ 5.47 µM) against Staphylococcus aureus [3]; 2 µg/mL (≈ 5.47 µM) with Enterococcus faecalis [4]; 1 µg/mL (≈ 2.74 µM) with Enterococcus faecalis [5]; 2 µg/mL (≈ 5.47 µM) against Enterococcus faecium.

With `CC(=O)NC[C@H]1CN(c2ccc(N3CCOCC3)c(F)c2)C(=O)O1` [LINEZOLID], the minimal inhibitory concentration (MIC) in the test with Staphylococcus aureus [1] came out at 1 µg/mL (≈ 2.96 µM); against Enterococcus faecium, 2 µg/mL (≈ 5.93 µM).
